Tests used:
Format in all cases: tissue-based
[1] = molecular target: Beta-1 adrenergic receptor (Rattus norvegicus, UniProt P18090); experiment: Displacement of [3H]CGP12177 from beta1 adrenoreceptor in Rattus norvegicus (rat) cerebral cortex by liquid scintillation counting
[2] = molecular target: T1, 5-hydroxytryptamine receptor 1A (Rattus norvegicus, UniProt P19327); experiment: Displacement of [3H]8-OH-DPAT from 5HT1A receptor in Rattus norvegicus (rat) cerebral cortex after 15 min by filter binding assay
T1 sequence (P19327 whole entry): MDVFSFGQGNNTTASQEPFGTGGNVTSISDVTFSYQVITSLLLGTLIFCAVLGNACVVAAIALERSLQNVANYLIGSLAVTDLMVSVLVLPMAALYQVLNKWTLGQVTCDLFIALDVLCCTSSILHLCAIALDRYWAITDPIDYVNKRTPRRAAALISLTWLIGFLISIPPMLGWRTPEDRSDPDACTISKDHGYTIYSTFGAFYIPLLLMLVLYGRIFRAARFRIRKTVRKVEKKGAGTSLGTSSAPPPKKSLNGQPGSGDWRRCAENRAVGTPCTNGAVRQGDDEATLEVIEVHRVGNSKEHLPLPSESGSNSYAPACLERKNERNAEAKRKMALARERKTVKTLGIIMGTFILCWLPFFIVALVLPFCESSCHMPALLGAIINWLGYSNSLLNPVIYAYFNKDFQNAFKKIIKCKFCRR

[3] = molecular target: 5-hydroxytryptamine receptor 2A (Rattus norvegicus, UniProt P14842); experiment: Displacement of [3H]Ketanserin from 5HT2A receptor in Rattus norvegicus (rat) cerebral cortex by filter binding assay
Chain of 5-hydroxytryptamine receptor 2A (P14842 whole entry): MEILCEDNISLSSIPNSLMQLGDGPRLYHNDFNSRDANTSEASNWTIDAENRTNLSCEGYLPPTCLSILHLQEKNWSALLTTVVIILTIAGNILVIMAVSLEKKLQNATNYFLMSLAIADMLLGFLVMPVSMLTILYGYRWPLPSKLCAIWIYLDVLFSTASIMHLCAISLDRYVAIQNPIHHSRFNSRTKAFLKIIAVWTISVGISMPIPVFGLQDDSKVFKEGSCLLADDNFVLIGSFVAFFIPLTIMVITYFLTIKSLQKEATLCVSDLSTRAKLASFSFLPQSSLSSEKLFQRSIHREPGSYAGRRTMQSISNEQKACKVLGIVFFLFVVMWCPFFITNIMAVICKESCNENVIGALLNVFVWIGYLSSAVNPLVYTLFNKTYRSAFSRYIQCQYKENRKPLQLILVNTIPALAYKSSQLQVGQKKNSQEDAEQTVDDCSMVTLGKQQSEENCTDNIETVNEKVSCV

Chain of Beta-1 adrenergic receptor (P18090 whole entry): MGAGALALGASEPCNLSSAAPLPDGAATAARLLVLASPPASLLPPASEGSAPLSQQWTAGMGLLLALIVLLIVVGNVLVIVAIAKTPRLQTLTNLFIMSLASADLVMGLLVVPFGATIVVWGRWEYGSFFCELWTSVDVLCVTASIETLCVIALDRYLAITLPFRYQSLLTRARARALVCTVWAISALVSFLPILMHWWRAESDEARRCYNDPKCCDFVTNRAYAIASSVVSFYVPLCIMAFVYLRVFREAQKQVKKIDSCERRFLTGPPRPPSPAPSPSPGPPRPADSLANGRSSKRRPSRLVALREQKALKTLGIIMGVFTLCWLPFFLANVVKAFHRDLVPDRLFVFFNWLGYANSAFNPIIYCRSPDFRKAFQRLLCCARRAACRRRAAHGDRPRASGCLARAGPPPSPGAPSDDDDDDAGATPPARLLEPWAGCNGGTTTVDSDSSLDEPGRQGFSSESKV

- Ki [1]: 38.5 µM
- Ki [2]: 370 nM
- Ki [3]: 336 nM
Compound: O=C1C2C3C=CC(C3)C2C(=O)N1OCC(O)CN1CCN(c2ccccc2)CC1 (stereo not drawn)

— ChEMBL document CHEMBL3046010, “Synthesis and pharmacological evaluation of 4-[2-hydroxy-3-(4-phenyl-piperazin-1-yl)-propoxy]-4-azatricyclo[5.2.1.02,6]dec-8-ene-3,5-dione” (Med Chem Res, 2008)
